Laboratory results taken from patent US10370391B2, “Hydrogen peroxide-activable, anti-oxidant compounds and methods using same” (Beth Israel Deaconess Medical Center, Inc., priority 2014, dated 2019).

Experiments:
[1] = test system: adult rat ventricular cardiomyocytes (ARVC); experiment: MTT cytotoxicity assay, ARVC; type: cell-based; settings: concentrations as high as 5 mM, 24 hours of incubation
Source text: FIG. 3, comprising FIGS. 3A-3B, is a set of bar graphs illustrating biocompatibility profiles of BRAP assessed by MTT assay in mouse macrophage (RAW264.7) cells (FIG. 3A) and ARVC (FIG. 3B).

[2] = Reaction of BRAP with H2O2 monitored by 1H NMR in D2O; type: physicochemical
Experimental: Since BRAP was designed to be rapidly oxidized by H2O2, generating HBA, boric acid and 2-(hydroxymethyl)-2-methylpropane-1,3-diol, the sensitivity of BRAP to H2O2 was investigated using ^1H NMR. BRAP was added to D2O containing H2O2 and the changes in the signal were monitored over time. In the presence of H2O2, BRAP was rapidly oxidized to generate HBA in a H2O2 concentration-dependent manner, confirmed by the appearance of new aromatic proton peaks at 6.8 and 7.2 ppm. In the presence of equimolar concentration of H2O2 (1 mM), a majority of boronic esters were cleaved within 30 minutes, with a half-life of hydrolysis of ˜5 minutes. Nearly all of boronic ester groups were cleaved by 5-fold excess of H2O2 (5 mM) within 5 minutes.

[3] = Water solubility of isolated BRAP; type: physicochemical; settings: white powder as obtained
Source text: H2O2-activable anti-oxidant prodrug BRAP was synthesized by reacting (4-(hydroxymethyl)phenyl)boronic acid and 2-(hydroxymethyl)-2-methylpropane-1,3-diol at room temperature (FIG. 1A). BRAP was obtained as white water-soluble powder and its chemical structure was confirmed by ^1H NMR (FIG. 1B).

[4] = test system: cardiac I/R injury; experiment: Mouse model of cardiac I/R injury; type: in vivo
Experimental: The beneficial effects of BRAP were further investigated using a mouse model of cardiac I/R injury in vivo. After 45 minutes of ischemia, BRAP (1.5 mg/kg) or vehicle was administered i.p. at the time of reperfusion, and then daily (1.5 mg/kg/day) for 2 weeks. For cardiac functional analysis, pressure-volume (PV) loop measurement and echocardiography were performed at 2 weeks after I/R surgery.
Studies were then performed to determine whether the benefits of BRAP after I/R were associated with attenuation of oxidative stress, inflammation, and apoptosis. These mechanistic analyses were performed in heart tissues 24 hours after cardiac I/R injury. […] BRAP administration decreased TNF-α and MCP-1 expressions compared with vehicle-treated mice.
Cardiac I/R surgery was performed in 12 week-old male mice as described in Choudhury, et al., 2011, Basic Res Cardiol 106:397. Briefly, mice were anaesthetized and placed on a rodent ventilator (model 687, Harvard Respirator). After thoracotomy, the left anterior descending artery (LAD) artery was identified and ligated with a 7-0 silk suture tied around a specialized 30 G-catheter. The animal remained under anesthesia and ventilation for 45 min of ischemia, after which reperfusion was achieved by cutting the suture and re-establishing arterial perfusion. Sham operated mice underwent the same procedure without LAD occlusion.
Cardiac function was evaluated using the pressure-volume loop measurement and echocardiography 2 weeks after I/R as described in Lee, et al., 2013, Sci Rep 3:2233. Pressure-volume parameters were measured after isoflurane (2%) inhalant anesthesia using a 1.4 Fr. micro-tip pressure-volume catheter (Scisense Inc, Ontario, Canada) inserted into the right common carotid artery. The catheter was gently advanced into the left ventricle to obtain LV hemodynamic parameters. Data was recorded using a Powerlab system (ADInstruments, Colorado Springs, Colo.). Beat by beat pressure-volume parameters including heart rate (HR), stroke volume (SV), stroke work (SW) and cardiac output (CO) were measured and analyzed using CardioSoft Pro software (CardioSoft, Houston, Tex.). Transthoracic echocardiography was performed using a Vevo2100 ultra-high frequency small animal imaging system with MS400 transducer (18-38 MHz) (Visualsonics, Toronto, Canada).
For liver apoptosis assay, terminal deoxynucleotidyl transferase dUTP nick end labeling (TUNEL) staining was performed using a DeadEnd™ Fluorometric TUNEL kit (Promega, Madison, Wis.). Tissue sections were stained for nuclei (4′,6-diamidino-2-phenylindole (DAPI) staining) and apoptotic nuclei (TUNEL staining) and analyzed using a confocal laser scanning microscope. For heart tissues, TUNEL staining was performed using in situ cell death detection Kit, fluorescein (Roche Applied Science, Indianapolis, Ind.). To distinguish cardiomyocyte from non-cardiomyocyte nuclei, triple stain for nuclei (DAPI staining), apoptotic nuclei (TUNEL staining), and cardiomyocytes (α-Actinin staining) was used, and the stained sections were analyzed using confocal microscopy. A minimum of ˜10 high power fields with ˜2000 nuclei/field were counted for each sample.
The activity of caspase-3 was determined with colorimetric assay kit (R&D Systems, Minneapolis, Minn.) as described in Choudhury, et al., 2011, Basic Res Cardiol 106:397; Bae, et al., 2010, Am J Physiol Heart Circ Physiol 299:H1374. Briefly, protein samples were added to substrates of Acetyl-Asp-Glu-Val-Asp-p-nitroanilide. The enzyme-catalyzed release of p-nitroanilide was measured at 405 nm. For PARP activity assay, activity was measured at 450 nm by incorporation of biotinylated poly (ADP-ribose) onto histone-coated proteins in plate using colorimetric assay kit (R&D Systems, Minneapolis, Minn., USA).
Heart tissues were collected for molecular analyses were performed in Bae, et al., 2010, Am J Physiol Heart Circ Physiol 299:H1374. […]

[5] = 1.5 mg/kg i.p. at reperfusion then daily for 2 weeks
[6] = 24 hours after I/R, compared with vehicle-treated mice

CC1(CO)COB(c2ccc(CO)cc2)OC1 [BRAP, (4-(5-(hydroxymethyl)-5-methyl-1,3,2-dioxaborinan-2-yl)phenyl)methanol]
cytotoxicity (MTT) [1]: no significant cytotoxicity
time in which nearly all of boronic ester groups were cleaved ([2]; 5-fold excess of H2O2 (5 mM)): ≤ 5 min
half-life at 1 mM ([2]; D2O containing H2O2, equimolar concentration of H2O2 (1 mM), read-out: half-life of hydrolysis): ~5 min
stability of boronic ester ([2]; absence of H2O2, 3 days): remained intact
time in which a majority of boronic esters were cleaved ([2]; equimolar concentration of H2O2 (1 mM)): ≤ 30 min
water solubility [3]: water-soluble
I/R-induced cardiac dysfunction by PV loop analysis (CO, SW, EF) [4, 5]: significantly attenuated
I/R-induced cardiac dysfunction by echocardiography (FS) [4, 5]: significantly attenuated
TUNEL-positive cardiomyocytes (apoptosis) ([4]; 24 hours after I/R): effectively inhibited
caspase-3 activation in heart ([4]; 24 hours after I/R): effectively reduced
MCP-1 mRNA expression in heart [4, 6]: decreased
TNF-α mRNA expression in heart [4, 6]: decreased
DHE staining (ROS generation) in heart ([4]; heart tissue 24 hours after I/R): significantly decreased
